The subject of test [1] is C. albicans. Description: Antimycotic activity: Minimum Inhibitory Concentration. It counts as cell-based, Candida albicans ATCC 10231. The note with it: for Minimum Inhibitory Concentrations: C. albicans; for MIC: Candida albicans. As to the method: (§1) The antimicrobial activity was determined by inoculation of the test microorganism into suitable growth media containing solutions of the compounds at concentrations of 100, 50, 10, 5, 1.0, 0.5 and 0.1 μg/ml. The reference antibiotics used were Gentamicin for the antibacterial tests and Amphotericin B for the antimycotic and antifungal tests. After incubation the antimicrobial activity was recorded as the Minimal Inhibitory Concentration (M.I.C.), i.e., the lowest concentration preventing macroscopically visible growth, for each test compound against each organism.
(§2) An initial solution of each formula (I) compound to be tested in sterile distilled water was prepared at a concentration of 1000 μg/ml. With appropriate dilutions using sterile distilled water, additional solutions were prepared at concentrations of 500, 100, 50, 10, 5 and 1 μg/ml.
(§3) The two species, C. albicans and C. tropicalis, were maintained on Sabouraud-Dextrose Agar (Oxoid CM41) and cultures for the preparation of the inoculum were incubated on this agar at 37° C. for 48 hours. 4.5 Ml volumes of citric acid-phosphate buffer pH 5.5 plus Yeast-Nitrogen Base (Difco 0392-15) were then inoculated from the agar cultures and incubated at 37° C. for 48 hours. 0.1 Ml aliquots of these cultures were then added to 100 ml volumes of sterile physiological saline to give the final inocula.
(§4) (b) For the tests on each of the C. albicans, C. tropicalis and C. neoformans strains and each of the test and reference compounds, a series of 8 tubes containing 4.5 ml volumes of citric acid-phosphate buffer pH 5.5 plus Yeast-Nitrogen Base (Difco 0392-15) were prepared. To 7 of these were added 0.5 ml volumes of the final solutions of the test compounds, giving final concentrations in the broths of 100, 50, 10, 5, 1.0, 0.5 and 0.1 μg/ml. To the eighth tube in each series was added 0.5 ml of the solvent used and diluted as for the preparation of the 1000 μg/ml solution of the compound. This tube was used as the growth control. The tubes were then inoculated with 0.1 ml aliquots of the inocula prepared as in "(b) Fungi" above. The tubes inoculated with the C. albicans and C. tropicalis were inoculated at 37° C. for 72 hours and the tubes inoculated with the C. neoformans straim were incubated at 30° C. for 72 hours. […] The tubes were then examined for evidence of growth as shown by turbidity of the medium and the lowest concentration of the test compound which prevented fungal growth was recorded as the Minimal Inhibitory Concentration. This test procedure was carried out on two separate days.

Test [2] concerns C. tropicalis. Described as above. As to conditions: pH 5.5, 37° C., 72 hours; for Minimum Inhibitory Concentrations: C. tropicalis; for MIC: Candida tropicalis. It counts as cell-based, Candida tropicalis NCPF 3111. Here is the method:
as §1, §2, §3, §4

In test [3] the test system is C. neoformans. Described as above. It counts as cell-based, Cryptococcus neoformans NCPF 3184. As to conditions: pH 5.5, 30° C., 72 hours; for Minimum Inhibitory Concentrations: C. neoformans; for MIC: Cryptococcus neoformans. As to the method:
as §1, §2
The C. neoformans was also maintained on Sabouraud-Dextrose Agar (Oxoid CM 41), but in this case cultures for the preparation of the inoculum were incubated on this agar at 30° C. for 48 hours. A 4.5 ml volume of citric acid-phosphate buffer pH 5.5 plus Yeast-Nitrogen Base (Difco-0392-15) was then inoculated from the agar culture and incubated at 30° C. for 48 hours. A 0.1 ml aliquot of this culture was then added to 100 ml sterile physiological saline to give the final inoculum.
as §4

For test [4], the system named is A. fumigatus. Description: Antifungal activity: Minimum Inhibitory Concentration. It counts as cell-based, Aspergillus fimigatus (A. fumigatus) NCPF 2140. The note with it: A. fumigatus, 27° C., one week; for MIC: Aspergillus fumigatus, read-out: Minimum Inhibitory Concentration. Here is the method: as §1, §2
(§5) The A. corymbifera, A. fumigatus, S. schenkii, T. rubrum, T. mentagrophytes, M. canis and P. verrucosa strains were all maintained on Sabouraud-Dextrose Agar (Oxoid CM 41) by incubating for 14 days at 27° C. To prepare the inocula 30 ml volumes of Sabouraud-Liquid medium (Oxoid CM 147) were inoculated from the agar cultures and incubated at 27° C. until heavy uniform growth resulted. The mycelial growth was then broken up by shaking with glass beads.
(§6) 1 Ml aliquots were removed from each of the cultures for the purpose of making viable counts and the cultures were then held at 4° C. The viable counts were made by preparing serial ten-fold dilutions of the cultures in sterile physiological saline and spreading on plates of Sabouraud-Dextrose Agar (Oxoid CM 41) which were then incubated at 27° C. for 14 days. When the viable counts had confirmed that each of the inocula contained approximately 10^6 colony forming units (C.F.U.) per ml the cultures were withdrawn from the refrigerator and used as the inocula for the tests.
(§7) (c) For the tests on each of the remaining seven strains and each of the test and reference compounds, a series of 8 tubes containing 4.5 ml volumes of Sabouraud-Liquid Medium (Oxoid CM 147) were prepared. To 7 of these were added 0.5 ml volumes of the final solutions of the test compounds, giving final concentrations in the broths of 100, 50, 10, 5, 1.0, 0.5 and 0.1 μg/ml. To the eighth tube in each series was added 0.5 ml of the solvent used and diluted as for the preparation of the 500 μg/ml solution of the compound. This tube was used as a growth control. The tubes were then inoculated with 0.1 ml aliquots of the inocula prepared as in "(b) Fungi" above. The tubes were then incubated at 27° C. with continuous shaking for a period of one week. The tubes were then examined for evidence of growth as shown by the presence of mycelial growth in the medium and the lowest concentration of the test compound which prevented fungal growth was recorded as the Minimal Inhibitory Concentration. This test procedure was carried out on two separate days.

Test [5] relates to P. verrucosa. The description is as above. It counts as cell-based, Phialophore verrucosa NCPF 1119. As to conditions: P. verrucosa, 27° C., one week; for MIC: Phialophora verrucosa, read-out: Minimum Inhibitory Concentration. Here is the method: as §1, §2, §5, §6, §7
[6] abbreviates: Day 1, pH 5.5, 37° C., 72 hours.
Setting [7] is: Day 2, pH 5.5, 37° C., 72 hours.
[8] abbreviates: pH 5.5, C. albicans, Day 1, pH 5.5, 37° C., 72 hours, read-out: Minimum Inhibitory Concentrations.
The mark [9] stands for this setting: pH 5.5, C. albicans, Day 2, pH 5.5, 37° C., 72 hours, read-out: Minimum Inhibitory Concentrations.
[10] abbreviates: pH 5.5, C. tropicalis, Day 1, read-out: Minimum Inhibitory Concentrations.
The mark [11] stands for this setting: pH 5.5, C. tropicalis, Day 2, read-out: Minimum Inhibitory Concentrations.
Where [12] appears, read: pH 5.5, C. neoformans, Day 1, read-out: Minimum Inhibitory Concentrations.
The mark [13] stands for this setting: pH 5.5, C. neoformans, Day 2, read-out: Minimum Inhibitory Concentrations.

Where two headings read alike, the source gives them in different places. Where only a bound is given, the exact number is not on record here.

Turning to “2,3(5)-dimethyl-1-dodecyl-pyrazolium methosulfate [Example 8-A]”, the “Minimum Inhibitory Concentrations” value in test [1] (setting [6]) worked out at 10 µg/mL; in test [1] (setting [7]), 50 µg/mL; in test [2] (Day 1), 5 µg/mL; in test [2] (Day 2), 5 µg/mL; in test [3] (Day 1), 5 µg/mL; in test [3] (Day 2) it was 1 µg/mL. Also, the “Minimum Inhibitory Concentration” value came out at 100 µg/mL in test [4] (Day 1), 100 µg/mL in test [4] (Day 2), 10 µg/mL in test [5] (Day 1) and 10 µg/mL in test [5] (Day 2).

For “2,3(5)-dimethyl-1-hexadecyl-pyrazolium methosulfate [Example 9]”, the “Minimum Inhibitory Concentrations” value in test [1] (setting [6]) came to 5 µg/mL; in test [1] (setting [7]), 10 µg/mL; in test [2] (Day 1), 5 µg/mL; in test [2] (Day 2), 1 µg/mL; in test [3] (Day 1), 1 µg/mL; in test [3] (Day 2) it was 0.5 µg/mL. Moreover, the “Minimum Inhibitory Concentration” value in test [4] (Day 1) is 5 µg/mL; in test [4] (Day 2), 10 µg/mL; in test [5] (Day 1) it was 5 µg/mL; in test [5] (Day 2), 10 µg/mL.

With `CCCCCCCCCCCCn1c(C)cc(C)[n+]1C` [Example 1, 1-dodecyl-2,3,5-trimethyl-pyrazolium methosulfate], the MIC in test [1] (setting [8]) worked out at 10 µg/mL; in test [1] (setting [9]), 50 µg/mL; in test [2] (setting [10]), 5 µg/mL; in test [2] (setting [11]), 5 µg/mL; in test [3] (setting [12]), 0.5 µg/mL; in test [3] (setting [13]) it was 0.5 µg/mL. Moreover, the MIC in test [4] (Day 1) is 100 µg/mL; in test [4] (Day 2), above 100 µg/mL; in test [5] (Day 1), 5 µg/mL; in test [5] (Day 2), 5 µg/mL.

Consider `CCCCCCCCCCCCCCCCn1c(C)cc(C)[n+]1C` [Example 2, 1-hexadecyl-2,3,5-trimethyl-pyrazolium methosulfate], for which the MIC in test [1] (setting [8]) stood at 1 µg/mL; in test [1] (setting [9]), 1 µg/mL; in test [2] (setting [10]), 1 µg/mL; in test [2] (setting [11]) it was 0.5 µg/mL; in test [3] (setting [12]), 0.5 µg/mL; in test [3] (setting [13]), 0.5 µg/mL. Besides, the MIC in test [4] (Day 1) turned out to be 10 µg/mL; in test [4] (Day 2), 5 µg/mL; in test [5] (Day 1), 5 µg/mL; in test [5] (Day 2), 10 µg/mL.

Turning to `CCCCCCCCCCCCCCCCn1ccc[n+]1C` [Example 3-D, 1-hexadecyl-2-methyl-pyrazolium methosulfate], the MIC stood at 1 µg/mL in test [1] (setting [8]); 1 µg/mL in test [1] (setting [9]); 0.5 µg/mL in test [2] (setting [10]); 0.5 µg/mL in test [2] (setting [11]); 5 µg/mL in test [3] (setting [12]); 1 µg/mL in test [3] (setting [13]). Further, the MIC in test [4] (Day 1) is 50 µg/mL; in test [4] (Day 2) it was 10 µg/mL; in test [5] (Day 1), 5 µg/mL; in test [5] (Day 2), 5 µg/mL.

On to `CCCCCCCCCCCCn1ccc[n+]1C` [Example 3-E, 1-dodecyl-2-methy-pyrazolium methosulfate], for which the MIC in test [1] (setting [8]) turned out to be 50 µg/mL; in test [1] (setting [9]), 50 µg/mL; in test [2] (setting [10]), 5 µg/mL; in test [2] (setting [11]), 1 µg/mL; in test [3] (setting [12]), 1 µg/mL; in test [3] (setting [13]), 5 µg/mL. In addition, the MIC in test [4] (Day 1) turned out to be 50 µg/mL; in test [4] (Day 2), 10 µg/mL; in test [5] (Day 1) it was 5 µg/mL; in test [5] (Day 2), 10 µg/mL.

For `CCCCCCCCCCCCCCn1ccc[n+]1C` [Example 3-G, 2-methyl-1-tetradecyl-pyrazolium methosulfate], the MIC worked out at 5 µg/mL in test [1] (setting [8]); 5 µg/mL in test [1] (setting [9]); 0.5 µg/mL in test [2] (setting [10]); 0.5 µg/mL in test [2] (setting [11]); 1 µg/mL in test [3] (setting [12]); 1 µg/mL in test [3] (setting [13]). Further, the MIC amounted to 50 µg/mL in test [4] (Day 1), 50 µg/mL in test [4] (Day 2), 5 µg/mL in test [5] (Day 1) and 5 µg/mL in test [5] (Day 2).

As for `CCCCCCCCCCCC[n+]1c(C)cc(C)n1Cc1ccc(Cl)cc1Cl.[Br-]` [Example 6-B, 2-(2,4-dichlorobenzyl)-3,5-dimethyl-1-dodecyl-pyrazolium bromide], the MIC was 5 µg/mL in test [1] (setting [8]); 5 µg/mL in test [1] (setting [9]); 1 µg/mL in test [2] (setting [10]); 1 µg/mL in test [2] (setting [11]); 1 µg/mL in test [3] (setting [12]); 1 µg/mL in test [3] (setting [13]). Besides, the MIC in test [4] (Day 1), in test [4] (Day 2), in test [5] (Day 1) and in test [5] (Day 2) was 5 µg/mL in each case.

For the molecule `CCCCCCCCCCCCCCCC[n+]1c(C)cc(C)n1C.Cc1ccc(S(=O)(=O)[O-])cc1` [Example 6-C, 1-hexadecyl-2,3,5-trimethylpyrazolium p-toluene sulfonate], the “Minimum Inhibitory Concentrations” value in test [1] (setting [7]) was found to be 5 µg/mL. For the same molecule, the MIC in test [1] (pH 5.5, read-out: Minimum Inhibitory Concentrations) stood at 5 µg/mL; in test [2] (pH 5.5, read-out: Minimum Inhibitory Concentrations, C. tropicalis, Day 1), 5 µg/mL; in test [3] (pH 5.5, read-out: Minimum Inhibitory Concentrations, C. neoformans, Day 1), 1 µg/mL; in test [3] (pH 5.5, read-out: Minimum Inhibitory Concentrations, C. neoformans, Day 2), 1 µg/mL. For the same molecule, the “Minimum Inhibitory Concentration” value in test [4] (Day 2) and in test [5] (Day 2) was 5 µg/mL in each case.

The record behind these values is patent US4207326A, “Antimicrobial quaternary pyrazole derivatives” (Cilag-Chemie A.G., priority 1979, dated 1980).
